Where “and” joins values, the source holds several entries; their conditions need not be identical. Identical values can stand only once.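 These data come from cells grown in 96-well plates and exposed to compound for 48 hours at five concentrations. GI50 marks 50% less growth. TGI is the concentration that stops growth completely.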
What was measured:
Assay in all cases: NCI anticancer screen, dose series, 48 h
786-0 renal = tested on: 786-0 renal
A549 NSCLC = tested on: A549 NSCLC
ACHN renal = tested on: ACHN renal
BT-549 breast = tested on: BT-549 breast
CCRF-CEM leukemia = tested on: CCRF-CEM leukemia
COLO 205 colon = tested on: COLO 205 colon
DU-145 prostate = tested on: DU-145 prostate
EKVX NSCLC = tested on: EKVX NSCLC
HCT-116 colon = tested on: HCT-116 colon
HCT-15 colon = tested on: HCT-15 colon
HL-60(TB) leukemia = tested on: HL-60(TB) leukemia
HOP-62 NSCLC = tested on: HOP-62 NSCLC
HOP-92 NSCLC = tested on: HOP-92 NSCLC
HS 578T breast = tested on: HS 578T breast
HT29 colon = tested on: HT29 colon
IGROV1 ovarian = tested on: IGROV1 ovarian
K-562 leukemia = tested on: K-562 leukemia
LOX IMVI melanoma = tested on: LOX IMVI melanoma
M14 melanoma = tested on: M14 melanoma
MALME-3M melanoma = tested on: MALME-3M melanoma
MDA-MB-231 breast = tested on: MDA-MB-231 breast
MDA-N = tested on: MDA-N
MOLT-4 leukemia = tested on: MOLT-4 leukemia
NCI-H226 lung = tested on: NCI-H226 lung
NCI-H23 lung = tested on: NCI-H23 lung
NCI-H460 lung = tested on: NCI-H460 lung
NCI-H522 lung = tested on: NCI-H522 lung
NCI/ADR-RES ovarian = tested on: NCI/ADR-RES ovarian
OVCAR-3 ovarian = tested on: OVCAR-3 ovarian
OVCAR-5 ovarian = tested on: OVCAR-5 ovarian
OVCAR-8 ovarian = tested on: OVCAR-8 ovarian
PC-3 prostate = tested on: PC-3 prostate
RXF 393 renal = tested on: RXF 393 renal
SF-268 CNS = tested on: SF-268 CNS
SF-295 CNS = tested on: SF-295 CNS
SF-539 CNS = tested on: SF-539 CNS
SK-MEL-2 melanoma = tested on: SK-MEL-2 melanoma
SK-MEL-28 melanoma = tested on: SK-MEL-28 melanoma
SK-MEL-5 melanoma = tested on: SK-MEL-5 melanoma
SK-OV-3 ovarian = tested on: SK-OV-3 ovarian
SN12C renal = tested on: SN12C renal
SNB-19 CNS = tested on: SNB-19 CNS
SNB-75 CNS = tested on: SNB-75 CNS
SW-620 colon = tested on: SW-620 colon
T-47D breast = tested on: T-47D breast
TK-10 renal = tested on: TK-10 renal
U251 CNS = tested on: U251 CNS
UACC-257 melanoma = tested on: UACC-257 melanoma
UACC-62 melanoma = tested on: UACC-62 melanoma
UO-31 renal = tested on: UO-31 renal
A498 renal = tested on: A498 renal
CAKI-1 renal = tested on: CAKI-1 renal
KM12 colon = tested on: KM12 colon
MCF7 breast = tested on: MCF7 breast
MDA-MB-435 = tested on: MDA-MB-435
OVCAR-4 ovarian = tested on: OVCAR-4 ovarian
RPMI-8226 leukemia = tested on: RPMI-8226 leukemia
SR leukemia = tested on: SR leukemia

## CCOP(=O)(O)CC1OC(CO)C(O)C1O (stereo not drawn)
786-0 renal
  TGI: > 100 µM
A549 NSCLC
  TGI: > 100 µM
ACHN renal
  TGI: > 100 µM
BT-549 breast
  TGI: > 100 µM
CCRF-CEM leukemia
  TGI: > 100 µM
COLO 205 colon
  TGI: > 100 µM
DU-145 prostate
  TGI: > 100 µM
EKVX NSCLC
  TGI: > 100 µM
HCT-116 colon
  TGI: > 100 µM
HCT-15 colon
  TGI: > 100 µM
HL-60(TB) leukemia
  GI50: 30.1 µM and > 100 µM
  TGI: > 100 µM
HOP-62 NSCLC
  TGI: > 100 µM
HOP-92 NSCLC
  TGI: > 100 µM
HS 578T breast
  TGI: > 100 µM
HT29 colon
  TGI: > 100 µM
IGROV1 ovarian
  TGI: > 100 µM
K-562 leukemia
  TGI: > 100 µM
LOX IMVI melanoma
  TGI: > 100 µM
M14 melanoma
  TGI: > 100 µM
MALME-3M melanoma
  TGI: > 100 µM
MDA-MB-231 breast
  TGI: > 100 µM
MDA-N
  TGI: > 100 µM
MOLT-4 leukemia
  TGI: > 100 µM
NCI-H226 lung
  TGI: > 100 µM
NCI-H23 lung
  TGI: > 100 µM
NCI-H460 lung
  TGI: > 100 µM
NCI-H522 lung
  TGI: > 100 µM
NCI/ADR-RES ovarian
  TGI: > 100 µM
OVCAR-3 ovarian
  TGI: > 100 µM
OVCAR-5 ovarian
  TGI: > 100 µM
OVCAR-8 ovarian
  TGI: > 100 µM
PC-3 prostate
  TGI: > 100 µM
RXF 393 renal
  TGI: > 100 µM
SF-268 CNS
  TGI: > 100 µM
SF-295 CNS
  TGI: > 100 µM
SF-539 CNS
  TGI: > 100 µM
SK-MEL-2 melanoma
  TGI: > 100 µM
SK-MEL-28 melanoma
  TGI: > 100 µM
SK-MEL-5 melanoma
  TGI: > 100 µM
SK-OV-3 ovarian
  TGI: > 100 µM
SN12C renal
  TGI: > 100 µM
SNB-19 CNS
  TGI: > 100 µM
SNB-75 CNS
  TGI: > 100 µM
SW-620 colon
  TGI: > 100 µM
T-47D breast
  TGI: > 100 µM
TK-10 renal
  TGI: > 100 µM
U251 CNS
  TGI: > 100 µM
UACC-257 melanoma
  TGI: > 100 µM
UACC-62 melanoma
  TGI: > 100 µM
UO-31 renal
  TGI: > 100 µM

## N#CC(C/C=C/c1ccccc1)NNC(=O)c1c(Cl)c(Cl)c(Cl)c(Cl)c1-c1nc2ccc(C(=O)c3ccccc3)cc2[nH]1 (stereo not drawn)
786-0 renal
  TGI: 30.2 µM
A498 renal
  TGI: 41.9 µM
A549 NSCLC
  TGI: 55.4 µM
ACHN renal
  TGI: 97.3 µM
BT-549 breast
  TGI: 54.4 µM
CAKI-1 renal
  TGI: > 100 µM
CCRF-CEM leukemia
  TGI: 20.3 µM
COLO 205 colon
  TGI: 42 µM
DU-145 prostate
  TGI: 50.7 µM
EKVX NSCLC
  TGI: 47.4 µM
HCT-116 colon
  TGI: 62.2 µM
HCT-15 colon
  TGI: 29.2 µM
HL-60(TB) leukemia
  TGI: 54.5 µM
HOP-62 NSCLC
  TGI: 24.8 µM
HOP-92 NSCLC
  TGI: 73.3 µM
HT29 colon
  TGI: 33.2 µM
IGROV1 ovarian
  TGI: > 100 µM
K-562 leukemia
  TGI: 55.2 µM
KM12 colon
  TGI: > 100 µM
LOX IMVI melanoma
  TGI: 28.5 µM
M14 melanoma
  TGI: 30.9 µM
MCF7 breast
  TGI: 36.2 µM
MDA-MB-231 breast
  TGI: 34.4 µM
MDA-MB-435
  TGI: 51.9 µM
MDA-N
  TGI: 19.4 µM
MOLT-4 leukemia
  TGI: 81.5 µM
NCI-H226 lung
  TGI: 41.6 µM
NCI-H23 lung
  TGI: 55.8 µM
NCI/ADR-RES ovarian
  TGI: 31 µM
OVCAR-3 ovarian
  TGI: 37.4 µM
OVCAR-4 ovarian
  TGI: 73.9 µM
OVCAR-5 ovarian
  TGI: 94.7 µM
OVCAR-8 ovarian
  TGI: 37.1 µM
PC-3 prostate
  TGI: 35.9 µM
RPMI-8226 leukemia
  TGI: 50.2 µM
RXF 393 renal
  TGI: 39.8 µM
SF-295 CNS
  TGI: 22.4 µM
SF-539 CNS
  TGI: 26.9 µM
SK-MEL-2 melanoma
  TGI: 45 µM
SK-MEL-28 melanoma
  TGI: > 100 µM
SK-MEL-5 melanoma
  TGI: 32 µM
SK-OV-3 ovarian
  TGI: 55.5 µM
SN12C renal
  TGI: 32.7 µM
SNB-19 CNS
  TGI: 35.8 µM
SNB-75 CNS
  TGI: 46.4 µM
SR leukemia
  TGI: 45.2 µM
SW-620 colon
  TGI: > 100 µM
T-47D breast
  TGI: 63.8 µM
TK-10 renal
  TGI: 66 µM
U251 CNS
  TGI: 25 µM
UACC-257 melanoma
  TGI: > 100 µM
UO-31 renal
  TGI: > 100 µM
